Test results from US20040198663A1, “Method of treating cardiac ischemia by using erythropoietin” (priority 2003, published 2004).

Tested on: hearts from normoxic infant rabbits
Test: Isolated Langendorff-perfused heart, 30 min global no-flow ischemia and 35 min reperfusion, normoxic hearts
Set-up: species or system New Zealand White rabbit
Details: for POST DRUG Coronary flow rate / POST DRUG Heart rate / POST DRUG Left ventricle developed pressure / POST DRUG Right ventricle developed pressure / REPERFUSION (35 min) Coronary flow rate / REPERFUSION (35 min) Heart rate / REPERFUSION (35 min) Left ventricle developed pressure / REPERFUSION (35 min) Right ventricle developed pressure: normoxic hearts; for REPERFUSION (35 min) Coronary flow rate / REPERFUSION (35 min) Heart rate / REPERFUSION (35 min) Left ventricle developed pressure / REPERFUSION (35 min) Right ventricle developed pressure: after 30 min ischemia
Experimental: The study was directed to determining whether erythropoietin (0.5-10.0 U/ml) confers immediate cardioprotection in infant rabbit hearts and the contribution of protein kinases, nitric oxide synthase and potassium channels to the underlying mechanism. Hearts from normoxic infant Zealand White rabbits (n=8/group) were isolated and perfused in the Langendorff mode. Biventricular function was recorded under steady-state conditions prior to 30 minutes global no flow ischemia and 35 minutes reperfusion.
Animals. Rabbits used in the study received humane care in compliance with the “Guide for the Care and Use of Laboratory Animals” formulated by the National Research Council, 1996. Infant New Zealand White rabbits were maintained for 10 days in a normoxic (SaO2>95%) or hypoxic (SaO2<85%) environment as described in Baker et al., Circulation 99:1249-54 (1999).
Isolated heart perfusion. Isolated rabbit hearts were perfused with bicarbonate buffer at constant pressure in a retrograde manner and instrumented as described in Baker et al., Circulation 99:1249-54 (1999). Protein kinase inhibitors, potassium channel blockers or nitric oxide synthase inhibitors were added to this perfusate as needed. A 3-way tap, located immediately above the site of cannulation, allowed the entire perfusate to be diverted away from the heart to produce global, no-flow ischemia. Reperfusion was achieved by repositioning of the tap to allow perfusate to be delivered to the heart. Left and right ventricular function was monitored continuously throughout each experiment as described in Baker et al., Circulation 99:1249-54 (1999). End-diastolic pressure was initially set to 3 mmHg for 2 minutes. The balloons were then progressively inflated with a microsyringe to set end-diastolic pressures to 8 mmHg for the left ventricle and 4 mmHg for the right ventricle, with developed pressure and heart rate recorded during steady-state conditions. Coronary flow rate was measured throughout the experiment by timed collections of the coronary effluent from the right side of the heart into a graduated cylinder. Coronary flow rate was expressed as milliliters per minute per gram wet weight.
Resistance to myocardial ischemia. Hearts from infant rabbits were perfused with bicarbonate buffer, and biventricular function was monitored continuously throughout each experiment as described in Rafiee et al., Circulation 106:239-45 (2002). For concentration response studies, hearts were then perfused with erythropoietin (0.5-10.0 U/ml) for 15 minutes prior to 30 minutes ischemia and 35 minutes reperfusion. For mechanism studies with protein kinase inhibitors, potassium channel blockers or nitric oxide synthase inhibitors, hearts were perfused with drugs for 15 minutes alone followed by 15 minutes in combination with erythropoietin prior to ischemia. Hearts perfused with protein kinase inhibitors or potassium channel blockers alone in the absence of erythropoietin for 30 minutes prior to ischemia served as untreated controls for these studies. Recovery of post-ischemic left and right ventricular developed pressure was expressed as a percentage of its pre-drug, pre-ischemic value.
Assessment of ventricular function. Left and right ventricular function was monitored continuously throughout each experiment as described in Rafiee et al., Circulation 106:239-45 (2002).
Hearts from New Zealand White rabbits at 9 days of age were perfused with erythropoietin at 0, 0.5, 1.0, 2.5, 5.0, and 10.0 U/ml for 15 minutes prior to 30 minutes global ischemia and 35 minutes reperfusion. Erythropoietin (1.0 U/ml) reduced coronary flow rate prior to ischemia from 7 ml/min/g to 6 ml/min/g but had no effect on heart rate (220±18 beats/min) or developed pressure in left (106±3 mm Hg) or right (42±3 mm Hg) ventricle.

[1] = erythropoietin 1.0 U/ml, no effect

erythropoietin: Recombinant human erythropoietin, a glycoprotein hormone, obtained from Cell Science, Inc.
cardioprotection after 20 minutes treatment versus 15-minute treatment (1.0 U/ml for 20 minutes): no further increase in cardioprotection
minimum treatment period needed to confer cardioprotection in both left and right ventricle (1.0 U/ml prior to ischemia): 15 min
protective concentrations of erythropoietin in the in vitro studies (15 min prior to ischemia): 0.5-5.0 units/ml
developed pressure in left ventricle prior to ischemia [1]: 106±3 mm Hg
developed pressure in right ventricle prior to ischemia [1]: 42±3 mm Hg
heart rate prior to ischemia [1]: 220±18 beats/min
coronary flow rate prior to ischemia (erythropoietin 1.0 U/ml, reduced from 7 ml/min/g): 6 mL/min/g
POST DRUG Coronary flow rate (EPO 0.5 U/ml for 15 min): 3 ± 1 mL/min/g
POST DRUG Heart rate (EPO 0.5 U/ml for 15 min): 196 ± 21 beats/min
POST DRUG Left ventricle developed pressure (EPO 0.5 U/ml for 15 min): 102 ± 8 mmHg
POST DRUG Right ventricle developed pressure (EPO 0.5 U/ml for 15 min): 38 ± 5 mmHg
REPERFUSION (35 min) Coronary flow rate (EPO 0.5 U/ml): 4 ± 1 mL/min/g
REPERFUSION (35 min) Heart rate (EPO 0.5 U/ml): 210 ± 19 beats/min
REPERFUSION (35 min) Left ventricle developed pressure (EPO 0.5 U/ml): 67 ± 3 mmHg
REPERFUSION (35 min) Right ventricle developed pressure (EPO 0.5 U/ml): 31 ± 4 mmHg
POST DRUG Coronary flow rate (EPO 1.0 U/ml for 15 min): 3 ± 1 mL/min/g
POST DRUG Heart rate (EPO 1.0 U/ml for 15 min): 199 ± 25 beats/min
POST DRUG Left ventricle developed pressure (EPO 1.0 U/ml for 15 min): 99 ± 4 mmHg
POST DRUG Right ventricle developed pressure (EPO 1.0 U/ml for 15 min): 38 ± 3 mmHg
REPERFUSION (35 min) Coronary flow rate (EPO 1.0 U/ml): 5 ± 1 mL/min/g
REPERFUSION (35 min) Heart rate (EPO 1.0 U/ml): 210 ± 30 beats/min
REPERFUSION (35 min) Left ventricle developed pressure (EPO 1.0 U/ml): 71 ± 8 mmHg
REPERFUSION (35 min) Right ventricle developed pressure (EPO 1.0 U/ml): 31 ± 2 mmHg
POST DRUG Coronary flow rate (EPO 2.5 U/ml for 15 min): 4 ± 1 mL/min/g
POST DRUG Heart rate (EPO 2.5 U/ml for 15 min): 210 ± 20 beats/min
POST DRUG Left ventricle developed pressure (EPO 2.5 U/ml for 15 min): 103 ± 4 mmHg
POST DRUG Right ventricle developed pressure (EPO 2.5 U/ml for 15 min): 41 ± 5 mmHg
REPERFUSION (35 min) Coronary flow rate (EPO 2.5 U/ml): 5 ± 2 mL/min/g
REPERFUSION (35 min) Heart rate (EPO 2.5 U/ml): 224 ± 14 beats/min
REPERFUSION (35 min) Left ventricle developed pressure (EPO 2.5 U/ml): 64 ± 3 mmHg
REPERFUSION (35 min) Right ventricle developed pressure (EPO 2.5 U/ml): 31 ± 3 mmHg
POST DRUG Coronary flow rate (EPO 5.0 U/ml for 15 min): 4 ± 1 mL/min/g
POST DRUG Heart rate (EPO 5.0 U/ml for 15 min): 221 ± 20 beats/min
POST DRUG Left ventricle developed pressure (EPO 5.0 U/ml for 15 min): 102 ± 6 mmHg
POST DRUG Right ventricle developed pressure (EPO 5.0 U/ml for 15 min): 43 ± 7 mmHg
REPERFUSION (35 min) Coronary flow rate (EPO 5.0 U/ml): 4 ± 1 mL/min/g
REPERFUSION (35 min) Heart rate (EPO 5.0 U/ml): 226 ± 26 beats/min
REPERFUSION (35 min) Left ventricle developed pressure (EPO 5.0 U/ml): 64 ± 4 mmHg
REPERFUSION (35 min) Right ventricle developed pressure (EPO 5.0 U/ml): 32 ± 5 mmHg
POST DRUG Coronary flow rate (EPO 10 U/ml for 15 min): 5 ± 2 mL/min/g
POST DRUG Heart rate (EPO 10 U/ml for 15 min): 232 ± 52 beats/min
POST DRUG Left ventricle developed pressure (EPO 10 U/ml for 15 min): 101 ± 5 mmHg
POST DRUG Right ventricle developed pressure (EPO 10 U/ml for 15 min): 40 ± 5 mmHg
REPERFUSION (35 min) Coronary flow rate (EPO 10 U/ml): 5 ± 1 mL/min/g
REPERFUSION (35 min) Heart rate (EPO 10 U/ml): 230 ± 49 beats/min
REPERFUSION (35 min) Left ventricle developed pressure (EPO 10 U/ml): 52 ± 3 mmHg
REPERFUSION (35 min) Right ventricle developed pressure (EPO 10 U/ml): 28 ± 4 mmHg
